Measurements from paper PMC5928880 (Theranostics, 2018).
Several values for one entry are separate records, joined by “and”; a condition that tells them apart may be missing. Equal entries are not always repeated. Where two headings read alike, the source gives them in different places. Values belong to the compound of their own block, whether it stands above or below them.

Key:
Jurkat leukemia cells = assay: Antiproliferation assay; assay type: cell-based, human; conditions: for inhibition at 50 µM / EC50: Jurkat; for inhibition at 50 µM: read-out: % inhibition at 50 µM, Jurkat; for EC50: read-out: Antiproliferative activity EC50, Jurkat; for Effect on growth of Jurkat cells: at 50 µM
[1] = system: MCF-7 (breast cancer) cells; assay: Antiproliferation assay; assay type: cell-based, human
NB4 cells = assay: Antiproliferation assay; assay type: cell-based, human
[2] = system: normal fibroblast WI-38 cells; assay: Antiproliferation assay; assay type: cell-based, human
MV4-11 cells = assay: Antiproliferation assay; assay type: cell-based, human
[3] = system: murine c-kit+ hematopoietic stem/progenitor cells (HSPC); assay: Colony-forming assay with hematopoietic stem/progenitor cells; assay type: cell-based, mouse; conditions: even at 250 nM
SKNO-1 cells = assay: Antiproliferation assay; assay type: cell-based, human
SKNO-1 leukemia [4] = assay: Subcutaneous xenograft mouse model of SKNO-1 leukemia; assay type: in vivo; conditions: i.p. 10 and 20 mg/kg/day, 10 injections in 14 days, NOD-SCID mice
Kasumi-1 cells [5] = assay: Antiproliferation assay; assay type: cell-based, human; conditions: read-out: Antiproliferative activity EC50, Kasumi-1
[6] = ref [44], [45]; cited from earlier work
[7] = i.p. 100 mg/kg/day, 10 injections over 14 days
[8] = system: Kasumi-1 and SKNO-1 cells; assay: Antiproliferation assay, R-E leukemia cells; assay type: cell-based, human; conditions: more active than Dex
Kasumi-1 cells [9] = assay: Combination treatment of Kasumi-1 cells, combination index; assay type: cell-based, human; conditions: Dex in combination with cytarabine, CI < 1 synergism, listed as Dex
SKNO-1 leukemia [10] = conditions: 15 mg/kg/day i.p. injection for 4 days, ref [37], cited from earlier work
myeloid leukemia cells = conditions: short course (3-7 days), high doses (20-30 mg/kg/day); ref [54]; cited from earlier work
[11] = Homo sapiens, MCF7, read-out: Antiproliferative activity EC50, MCF-7
[12] = Homo sapiens, NB-4, read-out: Antiproliferative activity EC50, NB4
[13] = Homo sapiens, WI-38, read-out: Antiproliferative activity EC50, WI-38
[14] = Homo sapiens, MV4-11, read-out: Antiproliferative activity EC50, MV4-11
[15] = Homo sapiens, SKNO-1, read-out: Antiproliferative activity EC50, SKNO-1

SMILES: C[C@@H]1C[C@H]2[C@@H]3CCC4=CC(=O)C=C[C@]4(C)[C@@]3(F)[C@@H](O)C[C@]2(C)[C@@]1(O)C(=O)COP(=O)(O)O [Dex-P, dexamethasone-21-phosphate]
EC50 ([1]; read-out: Antiproliferative activity EC50, MCF-7, MCF-7): > 50 µM
Survival in SKNO-1 xenograft (SKNO-1 leukemia [4]): prolonged survivals
Tumor growth in SKNO-1 xenograft (SKNO-1 leukemia [4]): significant tumor growth inhibition
EC50 (NB4 cells; read-out: Antiproliferative activity EC50, NB4, NB4): > 50 µM
EC50 (Kasumi-1 cells [5]): 0.009 µM
t1/2 in humans [6]: 4.7 h
Effect on colony-forming ability of murine HSPC [3]: did not significantly affect
Toxicity to mice [7]: without overt toxicities
EC50 ([2]; read-out: Antiproliferative activity EC50, WI-38, WI-38): > 50 µM
EC50 (Jurkat leukemia cells): > 50 µM
EC50 (MV4-11 cells; read-out: Antiproliferative activity EC50, MV4-11, MV4-11): > 50 µM
Activity compared to parent compound Dex (fold more active) [8]: ~ 2 fold
EC50 (SKNO-1 cells; read-out: Antiproliferative activity EC50, SKNO-1, SKNO-1): 0.017 µM

SMILES: Cc1c(Nc2ncccc2C(=O)O)cccc1C(F)(F)F [Fluninxin]
EC50 (Kasumi-1 cells [5]): 14.7 µM
Effect on growth of Jurkat cells (Jurkat leukemia cells): inactive
EC50 (Jurkat leukemia cells): ~50 µM

SMILES: C[C@]12CCC(=O)C=C1CC[C@@H]1[C@@H]2[C@@H](O)C[C@@]2(C)[C@H]1CC[C@]2(O)C(=O)CO [Hydrocortisone, hydrocortisone]
EC50 (Jurkat leukemia cells; Homo sapiens): > 50 µM
EC50 (SKNO-1 cells; [15]): 0.41 µM

SMILES: COc1ccc2cc(CCC(C)=O)ccc2c1 [Nabumetone]
EC50 (Kasumi-1 cells [5]): 18.5 µM
inhibition at 50 µM (Jurkat leukemia cells; Homo sapiens): -3.5%
EC50 (Jurkat leukemia cells; Homo sapiens): > 50 µM
Effect on growth of Jurkat cells (Jurkat leukemia cells): inactive

SMILES: C[C@]12C=CC(=O)C=C1CC[C@@H]1[C@@H]2[C@@H](O)C[C@@]2(C)[C@H]1CC[C@]2(O)C(=O)CO [Prednisolone, prednisolone]
EC50 (Jurkat leukemia cells; Homo sapiens): > 50 µM
EC50 (SKNO-1 cells; [15]): 0.15 µM

SMILES: CCCNCC(O)COc1ccccc1C(=O)CCc1ccccc1 (centres unmarked) [Propafenone, propafenone]
inhibition at 50 µM (Jurkat leukemia cells; Homo sapiens): 2.5%
EC50 (Jurkat leukemia cells; Homo sapiens): > 50 µM

SMILES: COc1cc2ccc(=O)oc2cc1O [Scopoletin, scopoletin]
inhibition at 50 µM (Jurkat leukemia cells; Homo sapiens): 29.4%
EC50 (Jurkat leukemia cells; Homo sapiens): > 50 µM

SMILES: C[C@H]1C[C@@H]2[C@H]([C@@H](O)C[C@@]3(C)[C@H]2CC[C@]3(O)C(=O)CO)[C@@]2(C)C=CC(=O)C=C12 [methylprednisolone]
Differentiation of myeloid leukemia cells in children with AML (myeloid leukemia cells): induce differentiation of myeloid leukemia cells

More lines, main results first:

EC50 (Jurkat leukemia cells; Homo sapiens): > 50 µM
SMILES: CC=CC(=O)N(CC)c1ccccc1C (mixture of isomers) [Crotamiton, crotamiton]
inhibition at 50 µM (Jurkat leukemia cells; Homo sapiens): 11.2%

EC50 (Jurkat leukemia cells; Homo sapiens): > 50 µM
SMILES: CC(=O)c1ccc2c(c1)N(CCCN(C)C)c1ccccc1S2 [Acepromazine, acepromazine]
inhibition at 50 µM (Jurkat leukemia cells; Homo sapiens): 21%

EC50 [1, 11]: 5.2 µM
EC50 (Jurkat leukemia cells; Homo sapiens): 1.6 µM
EC50 (MV4-11 cells; [14]): 0.09 µM
SMILES: CO[C@H]1/C=C\C=C(/C)C(=O)NC2=CC(=O)C(NCCN(C)C)=C(C[C@@H](C)C[C@H](OC)[C@H](O)[C@@H](C)/C=C(\C)[C@@H]1OC(N)=O)C2=O [Alvespimycin, alvespimycin]
EC50 (NB4 cells; [12]): 0.055 µM
EC50 [2, 13]: 27 µM

EC50 [1, 11]: > 50 µM
EC50 (Jurkat leukemia cells; Homo sapiens): > 50 µM
EC50 (MV4-11 cells; [14]): > 50 µM
EC50 (SKNO-1 cells; [15]): 0.059 µM
SMILES: C[C@H]1C[C@H]2[C@@H]3CCC4=CC(=O)C=C[C@]4(C)[C@@]3(F)[C@@H](O)C[C@]2(C)[C@@]1(O)C(=O)CO [Betamethasone, betamethasone]
EC50 (NB4 cells; [12]): > 50 µM
Effect on colony-forming ability of murine HSPC [3]: did not significantly affect
EC50 [2, 13]: > 50 µM
inhibition at 50 µM (Jurkat leukemia cells; Homo sapiens): 6.9%
Effect on growth of Jurkat cells (Jurkat leukemia cells): did not affect growth

EC50 (Jurkat leukemia cells; Homo sapiens): 15.2 µM
SMILES: CN(C)/N=N/c1[nH]cnc1C(N)=O [Dacarbazine, dacarbazine]

EC50 [1, 11]: > 50 µM
EC50 (Jurkat leukemia cells; Homo sapiens): > 50 µM
EC50 (MV4-11 cells; [14]): > 50 µM
EC50 (SKNO-1 cells; [15]): 0.029 µM
SMILES: C[C@@H]1C[C@H]2[C@@H]3CCC4=CC(=O)C=C[C@]4(C)[C@@]3(F)[C@@H](O)C[C@]2(C)[C@@]1(O)C(=O)CO [Dexamethasone, dexamethasone]
EC50 (NB4 cells; [12]): > 50 µM
Combination index (CI) (Kasumi-1 cells [9]): 0.13-0.75 and 0.13 to 0.75
EC50 [2, 13]: > 50 µM
In vivo activity (tumor burden) in mouse model of SKNO-1 leukemia (SKNO-1 leukemia [10]): did not reduce in vivo tumor burden
In vivo activity (tumor burden) in mouse model of SKNO-1 leukemia (SKNO-1 leukemia [10]; listed as Dex): no in vivo activity

EC50 [1, 11]: > 50 µM
EC50 (Jurkat leukemia cells; Homo sapiens): ~50 µM
EC50 (MV4-11 cells; [14]): 0.52 µM
SMILES: C=CCNC1=C2C[C@@H](C)C[C@H](OC)[C@H](O)[C@@H](C)/C=C(\C)[C@H](OC(N)=O)[C@@H](OC)/C=C\C=C(/C)C(=O)NC(=CC1=O)C2=O [Tanespimycin, tanespimycin]
EC50 (NB4 cells; [12]): 0.42 µM
EC50 [2, 13]: > 50 µM
